Experimental data reported in US20090023666A1, “Modulators of Hypoxia Inducible Factor-1 and Related Uses” (priority 2006, published 2009).
Read-outs that look alike come from different tables or passages of the source.

How the values were obtained:
[1] = test system: HIF-1α sensitive A549 sentinel line; test: HIF-1α sensitive A549 sentinel line reporter activity (FACS); format: cell-based; settings: 24 hours, 5 nM (FIG. 4)
Description: FIGS. 4A-4D are graphs depicting FACS analysis of beta-gal activity in an A549 sentinel line treated with 5 nM of BNC4 (FIG. 4A), BP228 (FIG. 4B), and BP244 (FIG. 4C) in comparison to vehicle only (shown as the shaded portion of the graph) for 24 hours. The graphs indicate frequency of cells (Y-axis) and intensity of fluorescence (X-axis) as measure of pathway activity. The bar chart (FIG. 4D) depicts the relative median fluorescent units of FACS curves.
By using the HIF-1α sensitive A549 sentinel line, the cell line was incubated with either BNC4, BP228 or BP244 for 24 hours and reporter activity was measured by FACS analysis.

tumor cell lines = test: Anti-proliferative activity in tumor cell lines (panel); format: cell-based, human; settings: for IC50: Homo sapiens, read-out: IC50 range over the tumor cell lines
Description: (§1) FIG. 8 is a graph depicting the mRNA levels of α-1 and α-3 isoforms quantitated by real time RT-PCR (TaqMan) using fluorescent labeled TaqMan probes. Anti-proliferation (IC50 values) activity of BNC4 on indicated cell lines was determined by MTS assay. Total alpha levels (al+a3) were plotted against (1/IC50) X100 values.

MCF-7 = test: Anti-proliferative activity, MCF-7; format: cell-based; settings: Homo sapiens
Description: as §1

DU145 = test: Anti-proliferative activity, DU145; format: cell-based; settings: Homo sapiens
Description: as §1

LnCaP = test: Anti-proliferative activity, LnCaP; format: cell-based; settings: Homo sapiens, read-out: Anti-Proliferative activity IC50
Description: as §1

MES-SA = test: Anti-proliferative activity, MES-SA; format: cell-based; settings: Homo sapiens, read-out: Anti-Proliferative activity IC50
Description: as §1

HCT116 = test: Anti-proliferative activity, HCT116; format: cell-based; settings: Homo sapiens
Description: as §1

786-O = test: Anti-proliferative activity, 786-O; format: cell-based; settings: Homo sapiens
Description: as §1

HOP-18 = test: Anti-proliferative activity, HOP-18; format: cell-based; settings: Homo sapiens
Description: as §1

CCRF-CEM = test: Anti-proliferative activity, CCRF-CEM; format: cell-based; settings: Homo sapiens, read-out: Anti-Proliferative activity IC50
Description: as §1

SNB-75 = test: Anti-proliferative activity, SNB-75; format: cell-based; settings: Homo sapiens
Description: as §1

SNB-78 = test: Anti-proliferative activity, SNB-78; format: cell-based; settings: Homo sapiens
Description: as §1

VEGF = test: Hypoxia induced VEGF secretion (ELISA); format: cell-based; settings: hypoxic conditions, Hep3B, Caki-1 16 hours (FIG. 6)
Description: FIG. 6 is two graphs depicting the effect of BP228 and BP244 on secretion of VEGF. Caki-1 cells were treated with indicated compound and cultured under hypoxia for 16 hours. VEGF levels in conditioned medium were measured using an ELISA kit.
The decrease in HIF-1 correlated closely with declining levels of VEGF secretion. […] Caki-1 cells were treated with indicated compound and cultured under hypoxia for 16 hours. VEGF levels in conditioned medium were measured using an ELISA kit.

A549 sentinel line = test: Hypoxic stress response induced by cytotoxic agents in A549 sentinel line; format: cell-based; settings: in the presence of Gemcitabine
From the text: FIGS. 7A-7E are graphs depicting the stress response of A549 Sentinel Line induced by treatment with Gemcitabine (FIG. 7A) or Gemcitabine in the presence of indicated compound (FIG. 7B-7D). Untreated (control) sample is shown in shadow. […] Similar results can be achieved for other chemotherapeutic agents which induce hypoxic stress, such as paclitaxel, carboplatin, and mitoxantrone.
Similar results were obtained with carboplatin (not shown).

Panc-1 tumors = test: In vivo activity against Panc-1 human pancreatic xenograft; set-up: species or system nude mice; settings: SC, CI
Description: Panc-1 tumors were injected subcutaneously (sc) into the flanks of male nude mice. After the tumors reached 60 mg in size, osmotic pumps (model 2002, Alzet Inc., flow rate 0.5 μl/hr) containing 15 mg/ml of BP244 were implanted sc on the opposite sides of the mice. The control animals received pumps containing vehicle (10% captisol, Cyclex Inc.). The mice treated with standard chemotherapy agent received intra-peritoneal injections of Gemcitabine at 40 mg/kg every 3 days for 4 treatments (q3d×4). The experiment was terminated when the control group tumor size reached an average of about 1 gram. Upon termination, the mice were weighed, sacrificed and their tumors excised. The tumors were weighed and the mean tumor weight per group was calculated.
A titration experiment was first performed on BP244 to determine its minimum effective dose against Panc-1 human pancreatic xenograft in nude mice. BP244 (sc, osmotic pumps) was first tested at 15, 10 and 5 mg/ml using Alzet pumps as in previous experiments. Gemcitabine (40 mg/kg; q3d×4, i.p.) was also included in the experiment as a comparison. […]

[2] = Pharmacokinetics following IP administration in mice; format: in vivo; settings: for tlast / Tmax: i.p.; for half-life: read-out: t1/2 (terminal elimination half-life) (converted)
Description: FIG. 13 is a graph depicting the pharmacokinetic profiled of BNC4, BP228 and BP244 in mice. The compounds were administered by intraperitoneal (i.p) injection at 2.5 mg/kg and 5.0 mg/kg for BP228 and at 5.0 mg/kg for BNC4 and BP244. The plasma samples were collected at various time points and concentration of compounds was analyzed by LC-MS. Pharmacokinetic parameters are provided in Example 23.
The compounds were administered by intraperitoneal (i.p) injection at 2.5 mg/kg and 5.0 mg/kg for BP228 and at 5.0 mg/kg for BNC4 and BP244. The plasma samples were collected at various time points and concentration of compounds was analyzed by LC-MS.

[3] = mouse, plasma, ip, 5 mg/kg, 5 mg/kg, read-out: tmax
[4] = MCF7, read-out: Anti-Proliferative activity IC50
[5] = DU-145, read-out: Anti-Proliferative activity IC50
[6] = HCT-116, read-out: Anti-Proliferative activity IC50
[7] = 786-0, read-out: Anti-Proliferative activity IC50
[8] = HOP-18, read-out: Anti-Proliferative activity IC50
[9] = SNB-75, read-out: Anti-Proliferative activity IC50
[10] = SNB-78, read-out: Anti-Proliferative activity IC50

Structure (SMILES) | reporter activity in A549 sentinel line [1] | VEGF secretion (VEGF) | stress response in A549 sentinel line induced by Gemcitabine (A549 sentinel line) | % TGI (d24) (Panc-1 tumors; 15 mg/ml) | % Wt Change (d24) (Panc-1 tumors; 15 mg/ml) | Av. Tumor Weight (Panc-1 tumors; 15 mg/ml) | tlast ([2]; 5 mg/kg) | AUC ([2]; mouse, plasma, ip, 5 mg/kg) | Cmax ([2]; mouse, plasma, ip, 5 mg/kg) | Tmax [2, 3] | half-life ([2]; mouse, plasma, ip, 5 mg/kg) | IC50 (tumor cell lines) | IC50 (MCF-7; [4]) | IC50 (DU145; [5]) | IC50 (LnCaP; LNCaP) | IC50 (MES-SA) | IC50 (HCT116; [6]) | IC50 (786-O; [7]) | IC50 (HOP-18; [8]) | IC50 (CCRF-CEM) | other results
C[C@@H]1O[C@@H](O[C@@H]2C=C3CC[C@@H]4[C@H](CC[C@]5(C)[C@@H](c6ccc(=O)oc6)CC[C@]45O)[C@@]3(C)CC2)[C@H](O)[C@H](O)[C@H]1O [BNC4, proscillaridin, reference compound] | active in inhibiting the reporter activity | reduce VEGF secretion | can inhibit the stress response | 87% | −2.69% | 243.9 mg | 6 h | 4570 ng·h/mL | 3610 ng/mL | 15 min | 48 min | – | – | – | – | – | – | – | – | – | IC50 (tumor cell lines; range over cell lines of Table 2): 418 nM; sensitivity of cell lines expressing very low levels of α-chain (tumor cell lines; SNB75 and RPMI-8226 compared with A549 or PC-3, MTS assay): very resistant; IC50 (MCF-7; MCF7, MCF-7, Breast (ER+), read-out: Anti-Proliferative activity IC50): 8.4 nM; IC50 (DU145; DU-145, DU145, Prostate (AR-), read-out: Anti-Proliferative activity IC50): 6.2 nM; IC50 (LnCaP; LnCaP, Prostate): 16.7 nM; IC50 (MES-SA; Uterine): 8.7 nM; IC50 (HCT116; HCT-116, HCT116, Colon, read-out: Anti-Proliferative activity IC50): 8.1 nM; IC50 (786-O; 786-0, 786-O, Renal, read-out: Anti-Proliferative activity IC50): 8.4 nM; IC50 (HOP-18; HOP-18, NSCL, read-out: Anti-Proliferative activity IC50): 9.2 nM; IC50 (CCRF-CEM; Leukemia): 6.3 nM; IC50 (SNB-75; SNB-75, CNS, read-out: Anti-Proliferative activity IC50): 16.8 nM; IC50 (SNB-78; SNB-78, CNS, read-out: Anti-Proliferative activity IC50): 10.1 nM
C[C@]12CC/C(=N\OCCN3CCCCC3)C=C1CC[C@@H]1[C@@H]2CC[C@]2(C)[C@@H](c3ccc(=O)oc3)CC[C@]12O [BP228] | active in inhibiting the reporter activity | Attenuate Hypoxia Induced VEGF Secretion | can inhibit the stress response | 79% | 4.88% | 327.0 mg | 6 h | 2350 ng·h/mL | 1200 ng/mL | 4.98 min | 114 min | 640 nM | 19.8 nM | 8.8 nM | 39.2 nM | 11.4 nM | 6.4 nM | 8.9 nM | 18.9 nM | 7 nM | IC50 (SNB-75; [9]): 19.2 nM; IC50 (SNB-78; [10]): 15.9 nM; % TGI (d24) (Panc-1 tumors; 10 mg/ml): 66%; % Wt Change (d24) (Panc-1 tumors; 10 mg/ml): 1.97%; Av. Tumor Weight (Panc-1 tumors; 10 mg/ml): 488.0 mg; tlast ([2]; 2.5 mg/kg): 6 h; Tmax ([2]; 5 mg/kg, listed as BNC228, 5 mg/kg): 5 min; AUC ([2]; mouse, plasma, ip, 2.5 mg/kg): 1020 ng·h/mL; Cmax ([2]; mouse, plasma, ip, 2.5 mg/kg): 715 ng/mL; Tmax ([2]; mouse, plasma, ip, 2.5 mg/kg, 2.5 mg/kg, read-out: tmax): 10 min; half-life ([2]; mouse, plasma, ip, 2.5 mg/kg): 90 min
C[C@@H]1O[C@@H](O[C@@H]2C=C3CC[C@@H]4[C@H](CC[C@]5(C)[C@@H](c6ccc(=O)oc6)CC[C@]45O)[C@@]3(C)CC2)[C@H](O)[C@H](O)[C@H]1N [BP244] | active in inhibiting the reporter activity | reduce VEGF secretion | can inhibit the stress response | 102% | 5.26% | 44.2 mg | 24 h | 4630 ng·h/mL | 2120 ng/mL | 30 min | 270 min | 5 to 14 nM | 8.2 nM | 6.7 nM | 13.8 nM | 8 nM | 5.1 nM | 8 nM | 7.3 nM | 4.7 nM | IC50 (SNB-75; [9]): 12.9 nM; IC50 (SNB-78; [10]): 7.7 nM; % TGI (d24) (Panc-1 tumors; 5 mg/ml): 71%; % Wt Change (d24) (Panc-1 tumors; 5 mg/ml): −4.63%; Av. Tumor Weight (Panc-1 tumors; 5 mg/ml): 524.4 mg; % TGI (d24) (Panc-1 tumors; 10 mg/ml): 98%; % Wt Change (d24) (Panc-1 tumors; 10 mg/ml): 0.93%; Av. Tumor Weight (Panc-1 tumors; 10 mg/ml): 107.3 mg
